Reference: patent US20160113958A1, “MODULATORS OF ADP-DEPENDENT GLUCOKINASE (ADPGK) AND GLYCEROL-3-PHOSPHATE DEHYDROGENASE (GPD2) FOR THERAPY” (DEUTSCHES KREBSFORSCHUNGSZENTRUM STIFTUNG DES ÖFFENTLICHEN …, priority 2011, published 2016)
Read-outs that look alike come from different tables or passages of the source.

Assays:
[1] = test system: in vitro expanded peripheral human T cells; assay: Determination of ROS generation (activation-induced oxidative signal, H2DCF-DA, FACS); format: cell-based; settings: for oxidative signal generation (T cell activation-induced mitochondrial ROS) with respiratory chain inhibitors: 15 min pre-treatment, plate-bound anti-CD3 (30 μg/ml) or PMA (10 ng/ml) 1 h (FIG. 9A)
Description: (§1) T cell line Jurkat J16-145 cells, J16 sub-clone (2), were cultured in RPMI 1640 (+L-glutamine), 10% foetal calf serum (FCS). Gaussia luciferase NF-κB reporter J16-145 cells were cultured in IMDM, 10% FCS. Freshly isolated (“resting”) or phytohemagglutinin (PHA)-activated and 6-8 days in vitro expanded (“pre-activated”) peripheral human T cells were cultured at initial concentration of 2×10^6 cells/ml in RPMI 1640 (+L-glutamine), 10% FCS. For pre-activation-induced expansion, “resting” T cells were treated with 1 μg/ml PHA for 16 h, washed and subsequently cultured in the presence of 25 U/ml IL-2 for 6-8 days. These cells are referred to as “T cells” in the text, if not stated differently.
(§2) Cells were stained with H2DCF-DA (5 μM) for 30 min. Next, cells were divided and 1 h stimulated with either plate-bound anti-CD3 antibody (30 μg/ml) or PMA (10 ng/ml). Treatment was terminated by ice-cold PBS and ROS generation was determined by FACS analysis (Canto II, Becton Dickinson). ROS generation was quantified as the increase in mean fluorescence intensity (MFI), calculated according to the following formula: increase in MFI (%)=[(MFIstimulated−MFIunstimulated)/MFIunstimulated]×100 (3).

[2] = test system: ETC complexes I, II and III; assay: Steady-state activity of ETC enzymatic complexes in digitonin-permeabilized T cells; format: biochemical, human; settings: T cells pre-treated (20 min) with BIM, TCR triggering
Description: In vitro expanded T cells (at least 0.5×10^8) were snap-frozen in liquid nitrogen and subsequently incubated on ice in ETC buffer (20 mM Tris-HCl pH 7.4, 250 mM sucrose, 50 mM KCl, 5 mM MgCl2) with 0.015% digitonin for 30 min according to Chretien et al. (4) with minor modifications. Afterwards, cells were washed twice with ice-cold ETC buffer and subjected to assays.
Steady-state activity of ETC enzymatic complexes was determined as described (5, 6) using a computer-tunable spectrophotometer (Spectramax Plus Microplate Reader, Molecular Devices; Sunny Vale, Calif., USA) operating in the dual wavelength mode; samples were analyzed in temperature-controlled 96-well plates in a final volume of 300 μL. The addition of standard respiratory chain inhibitors was used to ascertain the specificity of the enzymatic assays. All enzymatic activities were normalized to protein concentration. For stimulated T cells ETC enzyme activities were measured after snap-freezing and digitonin-permeabilization (as described previously). To study electron flow from complex I or complex II to complex III digitonin-permeabilized cells or mitochondrial fractions were incubated with NADH or succinate and the reduction of cytochrome c in the presence of NaCN was measured.

[3] = test system: GPD2; assay: GPD2 activity in mitochondrial fractions of T cells; format: biochemical, human
Description: (§3) Cells were disrupted using a 27×½″ needle in ice-cold ETC buffer and the homogenates were centrifuged at 600×g, 4° C. for 10 min. For preparation of the “high g” mitochondrial (pellet) as well cytosolic (supernatant) fraction the 600×g supernatant was centrifuged at 11.000×g, 4° C. for 20 min. For preparation of the “mitochondria-enriched” fractions, the 600×g supernatant was centrifuged 10 min, 4° C. at 3,500×g (pellet). Subsequently, for preparation of the “ER-enriched fraction” the 3,500×g supernatant was centrifuged at 11.000×g, 4° C. for 20 min. The mouse heart muscle mitochondria were prepared according to the procedure for “mitochondria-enriched” fraction as described (5).
Glycerol-3-phosphate-dehydrogenase (GPD2) activity was measured as cytochrome c reduction in ETC buffer containing 5 mM glycerol 3-phosphate, 2 mM NaCN, and 60 μM cytochrome c.

[4] = biological target: T1, ADPGK (Homo sapiens, UniProt Q9BRR6); assay: ADP-dependent glucokinase (ADPGK) activity assay; format: biochemical; settings: for ADPGK activity in mitochondria-enriched membrane fractions ("high g" fractions): human T cells or Jurkat T cells, 1 h stimulation
T1 construct: endogenous in cells; host or cells: in vitro expanded human T cells or Jurkat T cells; "high g" mitochondrial or "ER-enriched" fraction
Description: as §3
ADPGK activity was assayed as NADP reduction in ETC buffer containing 1 mM ADP, 1 mM glucose, 0.5 mM NADP, 5 μM diadenosine pentaphosphate, and 0.05 U/ml glucose 6-phosphate dehydrogenase at pH 6.0 and 37° C. or 42° C. Assay was essentially based on the one previously described for the recombinant mouse ADPGK protein (9).

[5] = test system: mitochondria-associated HK activity; assay: Respiration-coupled hexokinase (HK)-like activity in T cell mitochondria ("high g" fraction); format: biochemical, human
[6] = test system: Jurkat T cells; assay: Determination of ROS generation (activation-induced oxidative signal, H2DCF-DA, FACS); format: cell-based, human; settings: 30 min pre-incubation with DOG/pyruvate, compared to equimolar glucose (Glc)/pyruvate
Description: as §1
as §2, with “(3). […]” for “(3).”

[7] = test system: enolase (ENO); assay: Enolase (ENO) reverse reaction activity; format: biochemical, human
Description: Enolase (ENO) forward reaction was measured as NADH oxidation in ETC buffer containing 1 mM 2-phosphoglycerate, 1 mM ADP, 0.5 mM NADH, 2 U/ml LDH, 2 U/ml PK. The reverse reaction was assayed in ETC buffer containing 1 mM phosphoenolpyruvate, 1 mM ATP, 0.5 mM NADH, 2 U/ml LDH, 2 U/ml PK.

[8] = test system: in vitro expanded human T cells; assay: Ubiquinol/ubiquinone content determination (HPLC); format: cell-based; settings: PMA (10 ng/ml) 1 h, extracts from snap-frozen activated T cells
Description: At least 5×10^7 in vitro expanded human T cells were treated with plate-bound anti-CD3 antibody (30 μg/ml) or PMA (10 ng/ml) for 1 h. Cells were washed, pelleted, snap-frozen in liquid nitrogen and placed on dry ice. Ubiquinol/-on extraction was performed by addition of ice-cold 200 μl hexan: isopropanol (2:1) and subsequent centrifugation (15.000 g) for 5 min at 0° C. Next, 150 μl of the supernatant was immediately injected and separated by RP-HPLC. HPLC separation and identification conditions were based on previously published methods (10, 11). […] Identification was based on UV/VIS-DAD absorption spectra and facilitated by redox response detected with volt-amperometric detector. Quantitation was performed based on UV-VIS chromatograms at wavelengths: 275 nm (ubiquinone) and 289 nm (ubiquinol). Selected qualitative and quantitative results of UV-VIS/DAD analysis were confirmed by HPLC-MS/ESI (Agilent; Santa Clara, Calif., USA).

[9] = test system: T cells; assay: Glucose uptake (D-[3-3H] glucose); format: cell-based, human; settings: after stimulation with anti-CD3 antibody or PMA
Description: Upon treatment, cells (1-2×10^7 cells) were washed and suspended in Krebs-Ringer buffer. Subsequently, cells were incubated with 1 μCi/ml D-[3-^3H] glucose for 10 min at 37° C. Afterwards, cells were washed twice with ice-cold Krebs-Ringer buffer and intracellular D-[3-^3H] glucose was detected using a scintillation counter (LS 6500 Liquid Scintillation Counter Beckman Coulter; Brea, Calif., USA).

[10] = test system: in vitro expanded T cells; assay: Oxygen electrode, mitochondrial respiratory rate; format: cell-based; settings: intact human T cells, soluble anti-CD3 antibody or PMA
Description: Mitochondrial respiratory rate was measured according to a previously described protocol (7) using computer-supported high-resolution Oroboros 1 oxygraph system (Paar, Graz, Austria). In vitro expanded T cells (5-10×10^7 cells) were placed in each electrode chamber and activated with soluble anti-CD3 antibody (10 μg/m, cross-linked with GAM, 2 μg/ml) or PMA (10 ng/ml). The experimental set-up was as previously described (8). “Mitochondrial respiratory rate” was calculated by subtracting “Background oxygen consumption rate” (recorded with a reference electrode in a presence of 5 μM oligomycin) from “Total oxygen consumption rate” (as described in (8)).

[11] = test system: in vitro expanded peripheral human T cells; settings: previous work (ref. 3); cited from earlier work
[12] = test system: mitochondrial AK; assay: Adenylate kinase (AK) activity assay; format: biochemical; settings: 5 μM
Description: AK activity was assayed as NADP reduction in ETC buffer containing 1 mM ADP, 1 mM glucose, 0.5 mM NADP, 1 U/mL HK and 0.05 U/ml glucose 6-phosphate dehydrogenase at pH 7.5 and 37° C.

T1 sequence (Q9BRR6 23-497): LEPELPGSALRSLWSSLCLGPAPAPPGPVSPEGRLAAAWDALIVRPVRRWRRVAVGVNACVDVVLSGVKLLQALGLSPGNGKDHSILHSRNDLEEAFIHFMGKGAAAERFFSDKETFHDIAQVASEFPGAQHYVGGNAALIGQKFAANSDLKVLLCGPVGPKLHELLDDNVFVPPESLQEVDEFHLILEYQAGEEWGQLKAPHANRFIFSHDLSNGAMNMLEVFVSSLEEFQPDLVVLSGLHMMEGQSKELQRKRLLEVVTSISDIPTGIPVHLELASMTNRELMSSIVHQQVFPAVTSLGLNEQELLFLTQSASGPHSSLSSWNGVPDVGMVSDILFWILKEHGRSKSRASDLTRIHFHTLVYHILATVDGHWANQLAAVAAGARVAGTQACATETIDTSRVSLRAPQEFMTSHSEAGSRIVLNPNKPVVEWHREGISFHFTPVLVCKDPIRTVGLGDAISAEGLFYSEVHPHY

For `CN(C)CCCn1cc(C2=C(c3c[nH]c4ccccc34)C(=O)NC2=O)c2ccccc21` [BIM, bis-indolyl-maleimidate I], the “TCR-induced mitochondrial ROS generation” value ([1]; 20 min pre-incubation, 1 h plate-bound anti-CD3 antibody (30 μg/ml)) was “inhibitor”, the “activation-induced changes of enzymatic activities of complexes I, II and III” value [2] was “significantly blocked” and the “TCR-induced GPD2 activation” value ([3]; mitochondrial fractions of activated T cells, BIM pre-treatment) was “significantly blocked”. For the same molecule, the “T cell activation-induced enhancement of the ADPGK-like enzymatic activity” value ([4]; "high g" fractions, BIM pre-treatment (20 min)) was “completely abolished”.

In the case of `N#CC(C#N)=NNc1cccc(Cl)c1` [CCCP], the “sensitivity of the enhanced HK-like enzymatic activity” value ([5]; CCCP (0.125 μM), NaCN (10 mM)) was “insensitivity”.

For `O=CC[C@@H](O)[C@H](O)[C@H](O)CO` [DOG, 2-deoxy-glucose], the “activation-induced ROS” value ([1]; expanded human T cells, 30 min pre-incubation with DOG/pyruvate, compared to equimolar glucose (Glc)/pyruvate) was “lower amounts” and the “activation-induced ROS” value [6] was “lower amounts”.

In the case of `[F-].[Na+]` [NaF], the “reverse ENO activity” value ([7]; T cells) was “blocked”.

With `[N-]=[N+]=[N-].[Na+]` [NaN3] the “oxidative signal generation (T cell activation-induced mitochondrial ROS) with respiratory chain inhibitors” value [1] was “not blocked”.

In the case of `CCCCCCCCCCCCCC(=O)O[C@@H]1[C@@H](C)[C@@]2(O)[C@@H](C=C(CO)C[C@]3(O)C(=O)C(C)=C[C@@H]23)[C@@H]2C(C)(C)[C@]12OC(C)=O` [PMA, phorbol 12-myristate 13-acetate], the “rise in the content of ubiquinol over ubiquinone” value [8] was 57%, the “cellular uptake of radioactively labeled glucose” value [9] was “rapidly rose” and the mitochondrial oxygen consumption [10] was “significant inhibition”. For the same molecule, the GPD2 activity ([3]; mitochondria-enriched membrane fractions of pre-activated human T cells, PMA (10 ng/ml) 1 h) was “moderately up-regulated” and the “ADPGK activity in mitochondria-enriched membrane fractions ("high g" fractions)” value [4] was “Comparable up-regulation”.

With `O=C(CC(=O)C(F)(F)F)c1cccs1` [TTFA] the “oxidative signal generation (T cell activation-induced mitochondrial ROS) with respiratory chain inhibitors” value [1] was “moderate inhibition”.

In the case of `CN(C)C(=N)N=C(N)N` [metformin], the “oxidative signal generation (T cell activation-induced mitochondrial ROS) with respiratory chain inhibitors” value [1] is given as “inhibition” and the “generation of the oxidative signal” value [11] is given as “blocked”.

With `CO/C(=C/C(N)=O)[C@H](C)[C@H](/C=C/c1csc(-c2csc([C@@H](C)/C=C/C=C/C(C)C)n2)n1)OC` [myxothiazol] the “oxidative signal generation (T cell activation-induced mitochondrial ROS) with respiratory chain inhibitors” value [1] was “not”.

For `CC[C@H]1/C=C/C=C/C[C@@H](C)[C@H](O)[C@@](C)(O)C(=O)[C@@H](C)[C@H](O)[C@@H](C)C(=O)[C@@H](C)[C@H](O)[C@@H](C)/C=C/C(=O)O[C@@H]2[C@H](C)[C@H](CC1)O[C@]1(CC[C@H](C)[C@H](C[C@@H](C)O)O1)[C@H]2C` [oligomycin], the “oxidative signal generation (T cell activation-induced mitochondrial ROS) with respiratory chain inhibitors” value [1] was “not blocked”.

In the case of `C=C(C)[C@H]1Cc2c(ccc3c2O[C@@H]2COc4cc(OC)c(OC)cc4[C@@H]2C3=O)O1` [rotenone], the “oxidative signal generation (T cell activation-induced mitochondrial ROS) with respiratory chain inhibitors” value [1] was “inhibition”.

In the case of NaVO3, the “TCR-induced increase of reverse ENO activity” value [7] was “abolished” and the “reverse ENO activity” value [7] was “reduced the activity but did not block it”.

With “anti-CD3 antibody: Monoclonal mouse antibody (OKT3) against human CD3, agonistic, used for TCR triggering” the “cellular uptake of radioactively labeled glucose” value [9] was “rapidly rose”, the mitochondrial oxygen consumption [10] was “significant inhibition” and the “ADPGK activity in mitochondria-enriched membrane fractions ("high g" fractions)” value [4] was “enhanced”.

For antimycin, the “oxidative signal generation (T cell activation-induced mitochondrial ROS) with respiratory chain inhibitors” value [1] was “increased”.

In the case of diadenosine pentaphosphate [Ap5A], the “inhibition of mitochondrial AK” value [12] was 80-90%, the “inhibition of TCR-induced HK-like activity” value ([5]; 5 μM, presence of ADP and succinate) was “up to 40%” and the “activation-induced rise in HK-like activity” value ([5]; Ap5A 5 μM) was “unaffected”.
